The structures appear in SMILES notation.

The test is described as follows: Reduction of food intake assay. The class given is in vivo. The settings on record: beagles, oral gavage, 0.1, 0.25 or 0.5 mg/kg, Days 0 to 6. On the procedure:
Reduction of Food Intake Assay
Healthy, young adult (1-3 years of age) male and female beagles (Marshall Farms, North Rose, New York, N.Y. 14516) weighing 13-18 kg at the start of the treatment period are employed as test subjects.
The test compound is provided as a powder. The dosing solution, administered by oral gavage, is provided employing a 70/30 polyethylene glycol 400/water solution as the test vehicle. The dosing solution is prepared at 0.1 to 0.5 mg/ml activity so that 1 ml is delivered per kg body weight at dosages of 0.1 to 0.5 mg/kg. Following a seven day acclimation period, a ten day evaluation study is effected.
The study consists of three groups of animals containing 2 male and 2 female dogs, each. Each group of four animals is randomly assigned to receive 0.1, 0.25 or 0.5 mg/kg test compound. On Days 0 to 6, each dog receives the dosing solution administered as a single dose at Time 0 on each dosing day via a feeding tube. This is followed by a 10 ml water rinse to ensure total delivery of dosing solution. Each test animal is permitted ad libitum access to water and IAMS Mini-Chunks® (The Iams Company, P.O. Box 14597, Dayton, Ohio) dry food each day during the study and approximately 0.5-1 hours post-dose.

With `Cc1cc(CNC(=O)[C@@H](NC(=O)C(F)(F)F)c2ccccc2)ccc1NC(=O)c1ccccc1-c1ccc(C(F)(F)F)cc1` [Example 1A-1, (S) 4′-Trifluoromethyl-biphenyl-2-carboxylic Acid (2-methyl-4-{[2-phenyl-2-(2,2,2-trifluoro-acetylamino)-acetylamino]-methyl}-phenyl)-amide], the body weight result was “reduction in body weight”, the fecal fat result was “increased fecal fat”, the food intake result is “reduction in food intake” and the serum cholesterol entry is “reduction in serum cholesterol”.

Values taken from patent publication US20040132779A1, “Microsomal Triglyceride transfer protein inhibitor” (Pfizer Inc, priority 2002, published 2004).
